For this assay, the system named is Acinetobacter baumannii ATCC 17961. Kind of assay: Antimicrobial susceptibility testing: 90% growth inhibitory concentration (IC90) determination. The note with it: ATCC17961, Acinetobacter baumannii ATCC 17961, Iso-Sensitest broth, read-out: ATCC 17961 IC90. The assay is classed as cell-based. Put shortly: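 Broth microdilution in Iso-Sensitest medium, twofold series (e.g. 50 to 0.097 μM final), ~5×10^5 CFU/ml inoculum, 35±2 °C. OD600 read every 20 min over 16 h. IC90 derived from growth inhibition during logarithmic phase.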

From patent US11390604B2 (Hoffmann-La Roche Inc., priority 2019, dated 2022) come the findings set out here.

SMILES strings stand for the structures. Where a name gives a salt, the structure may show the parent alone.

One may read the IC90 as the concentration needed for an effect of 90%. Take `Cn1c(-c2cn(CC#N)nc2C(F)(F)F)cnc1C(=O)Nc1ccc(C(=O)N2CCN(C(=O)[C@H]3C[C@H](N)C3)CC2)c(Cl)c1` [Example 355, N-[4-[4-(3-aminocyclobutanecarbonyl)piper-azine-1-carbonyl]-3-chlorophenyl]-5-[1-(cyanomethyl)-3-(trifluoromethyl)pyrazol-4-yl]-1-methylimidazole-2-carboxamide;trihydrochloride]: the IC90 stood at 464 nM. The figure for `C=C(F)Cn1cc(-c2cnc(C(=O)Nc3ccc(C(=O)NCCCCCN)c(Cl)c3)n2C)c(C(F)(F)F)n1` [Example 185, N-(4-((5-aminopentyl)carbamoyl)-3-chlorophenyl)-5-(1-(2-fluoroallyl)-3-(trifluoromethyl)-1H-pyrazol-4-yl)-1-methyl-1H-imidazole-2-carboxamide hydrochloride] is 148 nM; for `Cn1c(-c2cn(CC#N)nc2C(F)(F)F)cnc1C(=O)Nc1ccc(C(=O)N[C@H]2C[C@H](NC(=O)[C@@H]3CCNC3)C2)c(Cl)c1` [Example 315, N-[3-chloro-4-[[3-[[(3R)-pyrrolidine-3-carbonyl]amino]cyclobutyl]car-bamoyl]phenyl]-5-[1-(cyanomethyl)-3-(trifluoromethyl)pyrazol-4-yl]-1-methylimidazole-2-carboxamide;formic acid] it is 390 nM; for `Cn1c(-c2cn(CC(F)F)nc2C(F)(F)F)cnc1C(=O)Nc1ccc(C(=O)N2CCN(C(=O)C3CCNCC3)CC2)c(Cl)c1` [Example 12, N-(3-chloro-4-(4-(piperidine-4-carbonyl)piperazine-1-carbonyl)phenyl)-5-(1-(2,2-difluoroethyl)-3-(trifluoromethyl)-1H-pyrazol-4-yl)-1-methyl-1H-imidazole-2-carboxamide hydrochloride] it is 700 nM. Consider `Cn1c(-c2cn(Cc3cccnc3)nc2C(F)(F)F)cnc1C(=O)Nc1ccc(C(=O)N2CCN(C(=O)[C@H]3C[C@H](N)C3)CC2)c(Cl)c1` [Example 63, rac-N-(4-(4-((1r,3r)-3-aminocyclobutane-1-carbonyl)piperazine-1-carbonyl)-3-chlorophenyl)-1-methyl-5-(1-(pyridin-3-ylmethyl)-3-(trifluoromethyl)-1H-pyrazol-4-yl)-1H-imidazole-2-carboxamide trihydrochloride], for which the IC90 amounted to 517 nM. The figure for `CCn1cc(-c2cnc(C(=O)Nc3ccc(C(=O)N4CCN(C(=O)N[C@H]5C[C@@H](N)C5)CC4)c(Cl)c3)n2C)c(C(F)(F)F)n1` [Example 296, N-(3-aminocyclobutyl)-4-[2-chloro-4-[[5-[1-ethyl-3-(trifluoromethyl)pyrazol-4-yl]-1-methylimidazole-2-carbonyl]amino]benzoyl]pipera-zine-1-carboxamide;formic acid] is 364 nM; for `Cn1c(-c2cn(C3CC3)nc2C(F)(F)F)cnc1C(=O)Nc1ccc(C(=O)N2CCN(C(=O)C(O)CN)CC2)c(Cl)c1` (stereo not drawn) [Example 270, N-[4-[4-(3-amino-2-hydroxypropanoyl)piperazine-1-carbonyl]-3-chlorophenyl]-5-[1-cyclopropyl-3-(trifluoromethyl)pyrazol-4-yl]-1-methylimidazole-2-carboxamide;hydrochloride] it is 333 nM. On to `Cn1c(-c2cn(C3CC3(F)F)nc2C(F)(F)F)cnc1C(=O)Nc1ccc(C(=O)NCC2(N)CC2)c(Cl)c1` (stereo not drawn) [Example 178, N-(4-(((1-aminocyclopropyl)methyl)carbamoyl)-3-chlorophenyl)-5-(1-(2,2-difluorocyclopropyl)-3-(trifluoromethyl)-1H-pyrazol-4-yl)-1-methyl-H-imidazole-2-carboxamide Formate], for which the IC90 amounted to 86 nM. Turning to `C=C(C)Cn1cc(-c2cnc(C(=O)Nc3ccc(C(=O)NCCCCN)c(Cl)c3)n2C)c(C(F)(F)F)n1` [Example 199, N-(4-((4-aminobutyl)carbamoyl)-3-chlorophenyl)-1-methyl-5-(1-(2-methylallyl)-3-(trifluoromethyl)-1H-pyrazol-4-yl)-1H-imidazole-2-carboxamide tris(2,2,2-trifluoroacetate)], the IC90 is 213 nM. The figure for `Cn1c(-c2cn(Cc3cccnc3)nc2C(F)(F)F)cnc1C(=O)Nc1ccc(C(=O)N2CCN(C(=O)[C@H]3CCNC3)CC2)c(Cl)c1` [Example 70, N-[3-chloro-4-[4-[(3S)-pyrrolidine-3-carbonyl]piperazine-1-carbonyl]phenyl]-1-methyl-5-[1-(pyridin-3-ylmethyl)-3-(trifluoromethyl)pyrazol-4-yl]imidazole-2-carboxamide] is 497 nM. The figure for `Cn1c(-c2cn(C3CC3)nc2C(F)(F)F)cnc1C(=O)Nc1ccc(C(=O)N2CCN(C(=O)C3CCNCC3)CC2)c(Cl)c1` [Example 54, N-(3-Chloro-4-(4-(piperidine-4-carbonyl)piperazine-1-carbonyl)phenyl)-5-(1-cyclopropyl-3-(trifluoromethyl)-1H-pyrazol-4-yl)-1-methyl-1H-imidazole-2-carboxamide hydrochloride] is 335 nM; for `Cn1c(-c2cn(C3CC3(F)F)nc2C(F)(F)F)cnc1C(=O)Nc1ccc(C(=O)N2C[C@H]3CNC[C@@H]3C2)c(Cl)c1` (mixture of isomers) [Example 329, rac-N-(3-chloro-4-((3aR,6aR)-octahydropyrrolo[3,4-c]pyrrole-2-carbonyl)phenyl)-5-(1-(2,2-difluorocyclopropyl)-3-(trifluoromethyl)-1H-pyrazol-4-yl)-1-methyl-1H-imidazole-2-carboxamide formate] it is 420 nM; for `C#CCn1cc(-c2cnc(C(=O)Nc3ccc(C(=O)N4CCN(C(=O)NCCNC)CC4)c(Cl)c3)n2C)c(C(F)(F)F)n1` [Example 76, 4-[2-chloro-4-[[1-methyl-5-[1-prop-2-ynyl-3-(trifluoromethyl)pyrazol-4-yl]imidazole-2-carbonyl]amino]benzoyl]-N-[2-(methylamino)ethyl]piperazine-1-carboxamide] it is 247 nM. For `Cn1c(-c2cn(C3CC3(F)F)nc2C(F)(F)F)cnc1C(=O)Nc1ccc(C(=O)NC2CCN(C(=O)N[C@@H]3CNC[C@H]3O)CC2)c(Cl)c1` (relative stereo) [Example 337, 4-(2-chloro-4-(5-(1-(2,2-difluorocyclopropyl)-3-(trifluoromethyl)-1H-pyrazol-4-yl)-1-methyl-1H-imidazole-2-carboxamido)benzamido)-N-(trans-4-hydroxypyrrolidin-3-yl)piperidine-1-carboxamide], the IC90 is 426 nM.

Turning to `Cn1c(-c2cn(CC3CCC3)nc2C(F)(F)F)cnc1C(=O)Nc1ccc(C(=O)N2CCN(C(=O)C3CCN3)CC2)c(Cl)c1` (stereo not drawn) [Example 281, N-(4-(4-(azetidine-2-carbonyl)piperazine-1-carbonyl)-3-chlorophenyl)-5-(1-(cyclobutylmethyl)-3-(trifluoromethyl)-1H-pyrazol-4-yl)-1-methyl-1H-imidazole-2-carboxamide hydrochloride], the IC90 is 348 nM. The figure for `Cn1c(-c2cn(CC(F)F)nc2C(F)(F)F)cnc1C(=O)Nc1ccc(C(=O)N2CCN(C(=O)N[C@H]3C[C@@H](N)C3)CC2)c(F)c1` [Example 272, rac-N-((1s,3s)-3-aminocyclobutyl)-4-(4-(5-(1-(2,2-difluoroethyl)-3-(trifluoromethyl)-1H-pyrazol-4-yl)-1-methyl-1H-imidazole-2-carboxamido)-2-fluorobenzoyl)piperazine-1-carboxamide] is 335 nM; for `Cn1c(-c2cn(CC(F)F)nc2C(F)(F)F)cnc1C(=O)Nc1ccc(C(=O)N2CCN(CC(=O)NCCN)CC2)c(Cl)c1` [Example 375, N-(4-(4-(2-((2-aminoethyl)amino)-2-oxoethyl)piperazine-1-carbonyl)-3-chlorophenyl)-5-(1-(2,2-difluoroethyl)-3-(trifluoromethyl)-1H-pyrazol-4-yl)-1-methyl-1H-imidazole-2-carboxamide formate] it is 495 nM; for `Cn1c(-c2cn([C@H]3CC3(F)F)nc2C(F)(F)F)cnc1C(=O)Nc1ccc(C(=O)N[C@H]2[C@@H]3CN(C(=O)N[C@@H]4CNC[C@H]4O)C[C@@H]32)c(Cl)c1` [Example 182, (1S,5R)-6-[[2-chloro-4-[[5-[1-[(1S)-2,2-difluorocyclopropyl]-3-(trifluoromethyl)pyrazol-4-yl]-1-methyl-imidazole-2-carbonyl]amino]benzoyl]amino]-N-[(3R,4R)-4-hydroxypyrrolidin-3-yl]-3-azabicyclo[3.1.0]hexane-3-carboxamide] it is 110 nM.

Turning to `Cn1c(-c2cn(CC#N)nc2C(F)(F)F)cnc1C(=O)Nc1ccc(C(=O)N[C@H]2C[C@@H](NC(=O)N3CCCC(N)C3)C2)c(Cl)c1` (stereo partly drawn) [Example 326, 3-amino-N-[3-[[2-chloro-4-[[5-[1-(cyanomethyl)-3-(trifluoromethyl)pyrazol-4-yl]-1-methyl-imidazole-2-carbonyl]amino]benzoyl]amino]cyclobutyl]piperidine-1-carboxamide; formic acid], the IC90 came out at 411 nM. Regarding `Cn1c(-c2cn(CC#N)nc2C(F)(F)F)cnc1C(=O)Nc1ccc(C(=O)N2CCN(C(=O)C3CCNCC3)CC2)c(Cl)c1` [Example 61, N-[3-Chloro-4-[4-(piperidine-4-carbonyl)piperazine-1-carbonyl]phenyl]-5-[1-(cyanomethyl)-3-(trifluoromethyl)pyrazol-4-yl]-1-methyl-imidazole-2-carboxamide Formate], the IC90 stood at 506 nM. Take `CCc1cc(NC(=O)c2ncc(-c3cn(CC#N)nc3C(F)(F)F)n2C)ccc1C(=O)N1CCN(C(=O)N2CC3(CC(N)C3)C2)CC1` [Example 134, N-[4-[4-(6-amino-2-azaspiro[3.3]heptane-2-carbonyl)piperazine-1-carbonyl]-3-ethylphenyl]-5-[1-(cyanomethyl)-3-(trifluoromethyl)pyrazol-4-yl]-1-methylimidazole-2-carboxamide;formic acid]: the IC90 is 860 nM.
